Bounds are passed on as bounds.

For assay [1], the target named is Rad18 (Homo sapiens, UniProt P63146). Nature of the assay: biochemical. Type of assay: biochemical. The settings on record: for inhibition of Rad18 autoubiquitination: Alpha assay.
Another assay deals with T1, Uba1 (Homo sapiens, UniProt P22314).
T1 sequence (P22314 1-1058): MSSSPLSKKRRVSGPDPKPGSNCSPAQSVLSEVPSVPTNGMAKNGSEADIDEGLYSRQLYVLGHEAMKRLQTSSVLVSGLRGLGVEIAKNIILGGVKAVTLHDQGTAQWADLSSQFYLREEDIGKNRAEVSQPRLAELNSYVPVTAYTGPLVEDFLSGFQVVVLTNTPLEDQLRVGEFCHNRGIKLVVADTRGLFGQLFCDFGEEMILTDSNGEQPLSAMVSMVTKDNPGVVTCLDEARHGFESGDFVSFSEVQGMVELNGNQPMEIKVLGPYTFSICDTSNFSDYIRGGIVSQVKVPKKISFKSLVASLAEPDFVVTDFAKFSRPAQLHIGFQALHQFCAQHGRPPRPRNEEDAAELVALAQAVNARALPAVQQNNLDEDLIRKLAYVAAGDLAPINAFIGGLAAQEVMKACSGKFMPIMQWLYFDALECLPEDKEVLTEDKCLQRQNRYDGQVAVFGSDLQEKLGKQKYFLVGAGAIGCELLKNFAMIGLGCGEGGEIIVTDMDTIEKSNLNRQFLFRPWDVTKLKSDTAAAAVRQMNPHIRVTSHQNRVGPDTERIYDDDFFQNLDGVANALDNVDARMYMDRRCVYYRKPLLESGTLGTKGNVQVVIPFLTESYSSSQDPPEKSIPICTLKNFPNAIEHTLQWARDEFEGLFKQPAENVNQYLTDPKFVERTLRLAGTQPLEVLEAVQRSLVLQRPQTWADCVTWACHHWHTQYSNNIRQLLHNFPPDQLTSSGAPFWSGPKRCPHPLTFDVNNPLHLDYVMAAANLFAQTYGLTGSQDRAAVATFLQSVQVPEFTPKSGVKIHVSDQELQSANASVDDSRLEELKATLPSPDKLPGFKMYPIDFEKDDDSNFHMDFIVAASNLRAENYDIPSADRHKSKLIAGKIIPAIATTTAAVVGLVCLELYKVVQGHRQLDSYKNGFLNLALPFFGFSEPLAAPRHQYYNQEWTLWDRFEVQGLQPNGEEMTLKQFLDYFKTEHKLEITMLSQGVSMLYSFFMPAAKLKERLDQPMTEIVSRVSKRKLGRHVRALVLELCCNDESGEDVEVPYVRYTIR
Kind of assay: Uba1∼ubiquitin thioester formation Alpha assay. Type of assay: biochemical. The settings on record: for inhibition of Uba1∼ubiquitin thioester formation: Alpha assay.

For another assay, the target named is Mms2–Ubc13 (Homo sapiens, UniProt P61088+Q15819). Nature of the assay: Mms2–Ubc13∼ubiquitin thioester formation gel-based assay. Type of assay: biochemical. The conditions noted are these: at 100 μM, silver-stained gel.
Sequence of Mms2–Ubc13 (P61088 whole entry): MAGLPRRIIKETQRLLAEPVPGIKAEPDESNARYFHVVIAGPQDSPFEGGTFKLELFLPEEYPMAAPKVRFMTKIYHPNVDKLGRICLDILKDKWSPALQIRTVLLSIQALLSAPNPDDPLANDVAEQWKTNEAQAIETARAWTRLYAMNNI
Sequence of Mms2–Ubc13 (Q15819 whole entry): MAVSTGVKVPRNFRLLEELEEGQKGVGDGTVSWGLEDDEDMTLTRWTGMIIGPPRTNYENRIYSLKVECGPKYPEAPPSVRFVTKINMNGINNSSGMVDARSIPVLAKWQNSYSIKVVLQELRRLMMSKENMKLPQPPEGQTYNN
Another assay addresses Rad6–Ubr1 interaction (Homo sapiens, UniProt P63146). Nature of the assay: Rad6–Ubr1 interaction Alpha assay. Type of assay: binding.
The next assay deals with HeLa cells. Nature of the assay: Cell survival. Type of assay: cell-based. The conditions noted are these: Homo sapiens, 24 h, read-out: IC50 (μM) for cell survival.
In assay [2] the target is T2, Rad6 (Homo sapiens, UniProt P63146). Nature of the assay: biochemical. The class given is biochemical. The settings on record: for inhibition of formation of the Rad6∼ubiquitin thioester conjugate: Alpha assay.
T2 sequence (P63146 whole entry): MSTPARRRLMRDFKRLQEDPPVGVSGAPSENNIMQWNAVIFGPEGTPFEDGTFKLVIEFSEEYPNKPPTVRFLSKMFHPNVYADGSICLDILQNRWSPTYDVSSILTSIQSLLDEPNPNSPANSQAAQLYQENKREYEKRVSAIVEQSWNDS
The target of the next assay is Rad6–Rad18 interaction (Homo sapiens, UniProt P63146). Kind of assay: Rad6–Rad18 interaction Alpha assay. The class given is binding. The conditions noted are these: for disruption of the Rad6–Rad18 interaction: Alpha assay.
Sequence of Rad6–Rad18 interaction (P63146 whole entry): as above
In assay [3] the target is T2, Rad6. Nature of the assay: Microscale thermophoresis, binding to GFP-Rad6. (In general: MST reads how a fluorescent partner responds to local heating, with and without ligand.)
In another assay the test system is PCNA ubiquitination. Nature of the assay: Alpha assay for overall PCNA ubiquitination. Type of assay: biochemical, human. The conditions noted are these: for IC50: read-out: IC50 PCNA–Ub, SE and 95% CI in cell.
The target in assay [4] is Rad18 (Homo sapiens, UniProt Q9NS91). Kind of assay: Microscale thermophoresis, binding to GFP-Rad18. The conditions noted are these: low concentrations used for the Rad6-binding study.
Sequence of Rad18 (Homo sapiens, UniProt Q9NS91) (Q9NS91 whole entry): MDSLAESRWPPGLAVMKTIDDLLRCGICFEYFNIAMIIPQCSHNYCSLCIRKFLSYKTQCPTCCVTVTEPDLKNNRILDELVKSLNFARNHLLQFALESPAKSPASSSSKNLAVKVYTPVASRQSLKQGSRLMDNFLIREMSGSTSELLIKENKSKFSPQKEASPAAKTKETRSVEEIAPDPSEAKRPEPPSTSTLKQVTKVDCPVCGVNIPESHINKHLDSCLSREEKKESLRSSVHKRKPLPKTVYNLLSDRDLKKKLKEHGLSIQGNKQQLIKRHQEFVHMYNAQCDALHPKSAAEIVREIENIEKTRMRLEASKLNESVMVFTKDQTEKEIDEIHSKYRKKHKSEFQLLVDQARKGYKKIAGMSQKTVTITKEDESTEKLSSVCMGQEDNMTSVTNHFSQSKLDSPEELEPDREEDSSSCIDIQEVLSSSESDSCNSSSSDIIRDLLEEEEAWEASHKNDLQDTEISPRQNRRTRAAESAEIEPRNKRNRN

Sequence of Rad18 (Homo sapiens, UniProt P63146) (P63146 whole entry): as the sequence (P63146 whole entry) above
Sequence of Rad6–Ubr1 interaction (P63146 whole entry): as above

Regarding `O=c1cc2oc3cc(O)c(O)cc3c(-c3ccccc3O)c-2cc1O` [NSC 9037, 2,6,7-trihydroxy-9-(2-hydroxyphenyl)-3H-xanthen-3-one], the IC50 (in general, the midpoint of a concentration-inhibition curve) is 4.46 µM against Rad18 [1]; greater than 100 µM on Uba1; greater than 50 µM against Rad6–Ubr1 interaction; 62.2 µM in the assay on HeLa cells; 8.9 µM on Rad6 [2]; 6.19 µM on Rad6–Rad18 interaction. For the same compound, the IC50 in the assay with PCNA ubiquitination was 4.54 µM. Further, the “inhibition of Rad18 autoubiquitination” value on Rad18 [1] is recorded as “inhibit”. The “Mms2–Ubc13∼Ub inhibition on gel” value at Mms2–Ubc13 was “No inhibition on gel at 100 μM”. At Rad6 [2], the “inhibition of formation of the Rad6∼ubiquitin thioester conjugate” value is on record as “inhibit”. Besides, the “disruption of the Rad6–Rad18 interaction” value on Rad6–Rad18 interaction was “disrupt”. Moreover, binding on Rad6 [3] was characterised by a dissociation constant (Kd) of 3.79 ± 2.94 µM. At Rad18 [4], the “binding to Rad18” value is “very weak binding”.

As for `Cc1cc2c(-c3ccccc3)c3cc(C)c(N)cc3nc2cc1N` [NSC 71947, 2,7-dimethyl-9-phenylacridine-3,6-diamine], the results for the IC50 against Uba1, in the assay on HeLa cells and in the assay on PCNA ubiquitination were greater than 100 µM, 11.8 µM and 24.9 µM, respectively. On Mms2–Ubc13, the “Mms2–Ubc13∼Ub inhibition on gel” value was “No inhibition on gel at 100 μM”.

With `CN(C)c1ccc(-c2c3cc(O)c(=O)cc-3oc3cc(O)c(O)cc23)cc1` [NSC 80693, 9-[4-(dimethylamino)phenyl]-2,6,7-trihydroxy-3H-xanthen-3-one], the half-inhibitory concentration (IC50) on Rad18 [1] is 13.2 µM; against Uba1 it was greater than 100 µM; with HeLa cells it was 7.67 µM; on Rad6 [2], 91.8 µM; against Rad6–Rad18 interaction, 14.6 µM; with PCNA ubiquitination, 4.28 µM. Also, the “inhibition of Rad18 autoubiquitination” value against Rad18 [1] is recorded as “inhibit”. Also, at Mms2–Ubc13, the “Mms2–Ubc13∼Ub inhibition on gel” value is “No inhibition on gel at 100 μM”. In addition, on Rad6–Ubr1 interaction (at 50 μM), the “Rad6–Ubr1 inhibition by Alpha” value was “Little inhibition by Alpha at 50 μM”. Also, the “inhibition of formation of the Rad6∼ubiquitin thioester conjugate” value on Rad6 [2] is given as “inhibit”. Also, the “disruption of the Rad6–Rad18 interaction” value on Rad6–Rad18 interaction is on record as “disrupt”.

As to `O=C(O)c1cccc(-c2c3ccc(=O)cc-3oc3cc(O)ccc23)c1` [NSC 119888, 3-(3-hydroxy-6-oxoxanthen-9-yl)benzoic acid], at Uba1, inhibition was half-maximal at 53.8 µM (IC50) and the “inhibition of Uba1∼ubiquitin thioester formation” value is given as “inhibit”. Besides, the “Mms2–Ubc13∼Ub inhibition on gel” value on Mms2–Ubc13 is given as “No inhibition on gel at 100 μM”. Besides, in the assay with HeLa cells, the half-inhibitory concentration (IC50) came to 75.3 µM.

Turning to `O=C(O)c1ccc(-c2c3ccc(=O)cc-3oc3cc(O)ccc23)cc1` [NSC 119891, 4-(3-hydroxy-6-oxoxanthen-9-yl)benzoic acid], the 50% inhibitory concentration (IC50) was greater than 100 µM against Uba1 and 208 µM in the assay on HeLa cells. Moreover, the “Mms2–Ubc13∼Ub inhibition on gel” value on Mms2–Ubc13 is “No inhibition on gel at 100 μM”.

As to `O=C(O)C1CC=CCC1c1c2ccc(=O)cc-2oc2cc(O)ccc12` (stereo not drawn) [NSC 157411, 6-(3-Hydroxy-6-oxo-xanthen-9-yl)cyclohex-3-ene-1-carboxylic acid], the results for the IC50 on Uba1, in the assay on HeLa cells and with PCNA ubiquitination were 24.8 µM, 428 µM and 8.44 µM, respectively. Moreover, the “inhibition of Uba1∼ubiquitin thioester formation” value against Uba1 is recorded as “inhibit”. Besides, the “Mms2–Ubc13∼Ub inhibition on gel” value at Mms2–Ubc13 is listed as “No inhibition on gel at 100 μM”.

For `COc1ccc(C2c3cc(O)c(OC)cc3Oc3cc(OC)c(O)cc32)cc1` [NSC 348718, 3,6-dimethoxy-9-(4-methoxyphenyl)-9H-xanthene-2,7-diol], the half-inhibitory concentration (IC50) against Uba1 was greater than 100 µM; in the assay on HeLa cells, 27.7 µM; with PCNA ubiquitination, greater than 100 µM. Also, the “Mms2–Ubc13∼Ub inhibition on gel” value on Mms2–Ubc13 is “No inhibition on gel at 100 μM”. In the assay on PCNA ubiquitination (Figure 3G), the “effect on PCNA ubiquitination” value was “inactive”.
